Assay results from publication PMC11574061, “Experimental and computational studies on possibility of using glucose diazacrown cryptand as a carrier for anticancer drugs busulfan and lomustine” (Scientific Reports, 2024).
Values after ≈ are worked out from the molar mass of the structure shown. Like-named read-outs stand apart in the source and are kept apart here.

Columns and labels:
colon cancer cells HT-29 = experiment: MTT cytotoxicity assay, HT-29; format: cell-based, human
Method: (§1) Breast cancer cells MCF-7, colon cancer cells HT-29, normal breast epithelial cells MCF-10 A and normal colon fibroblasts CCD-18Co were used as a cell model for testing the effect of compounds on the viability of cells. The cells were seeded in Dulbecco’s Modified Eagle Medium (DMEM) medium in 96-well plates and incubated for 24 h in a 5% CO2 atmosphere at 37 °C. MCF-10 A cells were grown in a medium supplemented with 0.4% bovine pituitary extract (BPE), 3 ng ml^− 1 hEGF, 5 µg ml^− 1 insulin, 0.5 µg ml^− 1 hydrocortisone and 100ng mL^− 1 cholera toxin. After that, cells were treated with different concentrations: 2.5, 10, 25, 50, 100, and 200 µM, of compounds for 72 h. Busulfan and lomustine were freshly dissolved in DMSO immediately before cell treatment. The solution of other compounds (lyophilized) were prepared in 30% DMSO. Then, a series of dilutions were prepared. The final concentrations of drugs, cryptand and complexes were in range 2.5–200 µM. The final concentration of DMSO diluted in culture medium was 0.2% for all experiments. The controls (without drugs) were treated with 0.2% DMSO. In this concentration DMSO was not cytotoxic for cells which was confirmed by preliminary experiments. The viability of cells treated with the tested compounds was assessed by measuring the ability of live cells to metabolize 3-(4,5-dimethylthiazolo-2-yl)-2,5-diphenyl tetrazolium bromide (MTT) to formazan, using a standard protocol. Briefly, after incubation with compounds, the medium of each well was discarded, cells were washed with PBS, and then 100 µL of fresh media with 10 µL MTT solution (5 mg mL^− 1 in PBS) was added to each well. After 4 h incubation at 37 °C, the produced formazan was solubilized by the addition of DMSO, and the absorbance of each well was determined at 570 nm using an ELISA reader. The results were expressed as the mean of at least four replicates as a percentage of control (taken as 100% - cells).

[1] = tested on: normal breast epithelial cells MCF-10 A; experiment: MTT cytotoxicity assay, MCF-10 A; format: cell-based, human; details: 72 h
Method: as §1

[2] = tested on: breast cancer cells MCF-7; experiment: MTT cytotoxicity assay, MCF-7; format: cell-based, human
Method: as §1

[3] = Approximate water solubility, stepwise addition of water; format: physicochemical; details: thermodynamic from solid; in water; estimated approximately, 1 mg substance, water added in 0.1 ml portions until clear
Method: The complexes were prepared according to the procedure described in a previous publication for the complex of another cryptand with BSF[7]. A solution of 2.5 mg (0.01 mmol) BSF in 0.25 ml DMSO was added under argon to a solution of 9.8 mg (0.01 mmol) cryptand 9 (L1) in 12.5 ml water at room temperature. […] The water solubility of the pure cryptand L1, both drugs and their complexes was estimated approximately using a simple method. For each compound separately, 1 mg of the substance was placed in a vial and water was added to it in portions of 0.1 ml. After each addition, the mixture was stirred for 10 min, and the clarity of the solution was checked with a magnifying glass. Stirring was stopped when the solution became completely clear.

[4] = tested on: normal colon fibroblasts CCD-18Co; experiment: MTT cytotoxicity assay, CCD-18Co; format: cell-based, human; details: 72 h
Method: as §1

[5] = HT-29 colon cancer cells, 72 h, MTT, 2.5–200 µM, mean ± SD, – = IC50 not reached in the range used
[6] = MCF-10 A normal breast cells, MTT, 2.5–200 µM, mean ± SD, – = IC50 not reached in the range used
[7] = MCF-7 breast cancer cells, 72 h, MTT, 2.5–200 µM, mean ± SD, – = IC50 not reached in the range used
[8] = CCD-18Co normal colon cells, MTT, 2.5–200 µM, mean ± SD, – = IC50 not reached in the range used
[9] = Homo sapiens, HT-29, 72 h, read-out: IC50
[10] = Homo sapiens, MCF-10A, read-out: IC50
[11] = Homo sapiens, MCF7, 72 h, read-out: IC50
[12] = Homo sapiens, CCD-18Co, read-out: IC50

SMILES	IC50 (colon cancer cells HT-29; [5])	IC50 [1, 6]	IC50 [2, 7]	solubility [3] [µg/mL]	IC50 [4, 8]	IC50 (colon cancer cells HT-29; [9]) [µM]	IC50 [1, 10] [µM]	IC50 [2, 11] [µM]	IC50 [4, 12] [µM]
O=C1NCC2OC(NC(=O)N3CCOCCOCCN(CCOCCOCC3)C(=O)NC3OC(CNC(=O)N4CCOCCOCCN1CCOCCOCC4)C(O)C(O)C3O)C(O)C(O)C2O (stereo not shown) [L1]	had not been reached	had not been reached	had not been reached	20000 (≈ 20.3 mM)	had not been reached	–	–	–	–
CS(=O)(=O)OCCCCOS(C)(=O)=O [BSF, butane-1,4-diyl dimethanesulfonate]	not achieved	not achieved	not achieved	130	not achieved	> 200	> 200	> 200	> 200
O=NN(CCCl)C(=O)NC1CCCCC1 [CCNU, 1-(2-chloroethyl)-3-cyclohexyl-1-nitrosourea]	–	–	–	50 (≈ 0.214 mM)	–	8.91 ± 1.5	48.9 ± 5.4	8.41 ± 1.6	56.2 ± 7.8
